Test results as given in US20250346585A1 (Alexion Pharmaceuticals, Inc., priority 2022, published 2025).
Like-named read-outs stand apart in the source and are kept apart here.

Target: Human complement C1s enzyme (Homo sapiens (Human), UniProt P09871)
Experiment: Human C1s enzyme assay
Type: biochemical
Settings: read-out: IC50 (Stars)
How it was run: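 IC50 derived by nonlinear regression of rate versus concentration, with rate taken from A405 kinetics (30 s intervals, 30 min) after adding 100 μM each Z-L-Lys-SBzl and DTNB. C1s from human serum, 1.16 nM, exposed to compound for 5 min at RT beforehand; buffer 50 mM Tris, 1 M NaCl, pH 7.5.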

[1] = Human C1s enzyme assay of Example 3
[2] = Human complement C1s enzyme 1.16 nM, substrate Z-L-Lys-SBzl 100 μM, assay of Example 3

Sequence of Human complement C1s enzyme (P09871 438-688 limits assumed): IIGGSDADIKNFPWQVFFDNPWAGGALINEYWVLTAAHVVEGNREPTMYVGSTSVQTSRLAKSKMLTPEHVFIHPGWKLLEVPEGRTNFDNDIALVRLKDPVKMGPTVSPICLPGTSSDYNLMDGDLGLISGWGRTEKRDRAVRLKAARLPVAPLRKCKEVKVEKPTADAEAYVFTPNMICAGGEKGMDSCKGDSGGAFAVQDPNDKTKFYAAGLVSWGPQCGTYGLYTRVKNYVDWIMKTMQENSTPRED
Sequence of Human complement C1s enzyme (P09871 16-437 partner limits assumed): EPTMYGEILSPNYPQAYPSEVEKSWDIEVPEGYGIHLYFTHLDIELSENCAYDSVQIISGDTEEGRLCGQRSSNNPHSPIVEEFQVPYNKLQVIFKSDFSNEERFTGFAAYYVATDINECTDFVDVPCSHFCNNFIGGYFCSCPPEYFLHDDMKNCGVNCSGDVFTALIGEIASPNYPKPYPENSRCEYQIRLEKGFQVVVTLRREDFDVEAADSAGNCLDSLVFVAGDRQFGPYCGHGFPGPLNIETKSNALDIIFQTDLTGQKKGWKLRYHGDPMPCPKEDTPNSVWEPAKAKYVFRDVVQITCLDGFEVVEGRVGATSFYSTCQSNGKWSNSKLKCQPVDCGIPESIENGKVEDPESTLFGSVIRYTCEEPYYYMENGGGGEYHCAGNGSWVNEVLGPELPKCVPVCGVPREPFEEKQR

IC50 [1] [µM]	IC50 [2] [µM]	Compound	further results
–	< 0.1	C[C@@H](NC(=O)[C@@H]1C[C@H](c2ccccn2)CN1C(=O)CNC(=O)c1ccc2c(c1)-c1ccccc1C2(F)F)c1cc(C(=N)N)cs1 [Compound 358, (2S,4S)—N—((R)-1-(4-carbamimidoylthiophen-2-yl)ethyl)-1-((9,9-difluoro-9H-fluorene-3-carbonyl)glycyl)-4-(pyridin-2-yl)pyrrolidine-2-carboxamide]	–
< 0.1	–	Cc1cc(C(=O)NCC(=O)N2[C@H]3C[C@@]3(C)C[C@H]2C(=O)N[C@H](C)c2cc(C(=N)N)cs2)ccc1Oc1ccccc1 [Compound 28, (1S,3S,5S)—N—((R)-1-(4-carbamimidoylthiophen-2-yl)ethyl)-5-methyl-2-((3-methyl-4-phenoxybenzoyl)glycyl)-2-azabicyclo[3.1.0]hexane-3-carboxamide]	–
–	> 1	O=C(NCC(=O)N1CC2(C[C@H]1C(=O)NCc1cc(NC3=NCCS3)cs1)OCCO2)c1ccc(Oc2ccc(F)cc2)cc1 [Compound 284, (S)-N-((4-((4,5-dihydrothiazol-2-yl)amino)thiophen-2-yl)methyl)-7-((4-(4-fluorophenoxy)benzoyl)glycyl)-1,4-dioxa-7-azaspiro[4.4]nonane-8-carboxamide]	–
< 0.1	–	Cc1cc(C(=O)NCC(=O)N2CC3(C[C@H]2C(=O)NCc2cc(C(=N)N)cs2)OCCO3)ccc1-c1ccccc1 [Compound 115, (S)—N-((4-carbamimidoylthiophen-2-yl)methyl)-7-((2-methyl-[1,1′-biphenyl]-4-carbonyl)glycyl)-1,4-dioxa-7-azaspiro[4.4]nonane-8-carboxamide]	–
–	< 0.1	N=C(N)c1csc(CNC(=O)[C@@H]2CC3(CN2C(=O)CN2Cc4cc(-c5ccc(F)cc5)ccc4C2=O)OCCO3)c1 [Compound 230]	–
> 1	–	O=C(NCC(=O)N1CC2(C[C@H]1C(=O)NCc1cccs1)OCCO2)c1ccc(Oc2ccc(F)cc2)cc1 [Compound 124, (S)-7-((4-(4-fluorophenoxy)benzoyl)glycyl)-N-(thiophen-2-ylmethyl)-1,4-dioxa-7-azaspiro [4.4]nonane-8-carboxamide]	–

Continued, compound first:

Compound	IC50 [1] [µM]	IC50 [2] [µM]	further results
C[C@@H](NC(=O)[C@@H]1CC2(CN1C(=O)CNC(=O)c1ccc3c(c1)-c1ccc(Cl)cc1C3(F)F)OCCO2)c1cc(C(=N)N)cs1 [Compound 192, (8S)—N-[(1R)-1-(4-carbamimidoylthiophen-2-yl)ethyl]-7-{2-[(7-chloro-9,9-difluorofluoren-3-yl)formamido]acetyl}-1,4-dioxa-7-azaspiro[4.4]nonane-8-carboxamide]	< 0.1	–	–
C[C@@H](NC(=O)[C@@H]1CC2(CN1C(=O)CNC(=O)c1ccc3c(c1)-c1ccccc1C3(F)F)OCCO2)c1ccc(C(=N)N)s1 [Compound 56]	< 0.1	–	–
C[C@@H](NC(=O)[C@@H]1CC2(CN1C(=O)CNC(=O)c1ccc3c(c1)-c1ccccc1C3(F)F)OCCO2)c1cc(-c2ncc[nH]2)cs1 [Compound 87, (S)—N—((R)-1-(4-(1H-imidazol-2-yl)thiophen-2-yl)ethyl)-7-((9,9-difluoro-9H-fluorene-3-carbonyl)glycyl)-1,4-dioxa-7-azaspiro[4.4]nonane-8-carboxamide]	< 0.1	–	–
O=C(NCC(=O)N1CC2(C[C@H]1C(=O)NCc1cc(Nc3ncc[nH]3)cs1)OCCO2)c1ccc(Oc2ccc(F)cc2)cc1 [Compound 283, (S)-N-((4-((1H-imidazol-2-yl)amino)thiophen-2-yl)methyl)-7-((4-(4-fluorophenoxy)benzoyl)glycyl)-1,4-dioxa-7-azaspiro[4.4]nonane-8-carboxamide]	–	> 1	–
C[C@@H](NC(=O)[C@@H]1C[C@@H](Oc2ccccc2)CN1C(=O)CNC(=O)c1ccc2oc3ccccc3c2c1)c1cc(C(=N)N)cs1 [Compound 248, (2S,4R)—N—((R)-1-(4-carbamimidoylthiophen-2-yl)ethyl)-1-((dibenzo[b,d]furan-2-carbonyl)glycyl)-4-phenoxypyrrolidine-2-carboxamide]	–	< 0.1	–
C[C@@H](NC(=O)c1ccc(-c2ccccc2)cc1)C(=O)N1CC2(C[C@H]1C(=O)NCc1cc(C(=N)N)cs1)OCCO2 [Compound 302, (S)-7-(([1,1′-biphenyl]-4-carbonyl)-D-alanyl)-N-((4-carbamimidoylthiophen-2-yl)methyl)-1,4-dioxa-7-azaspiro[4.4]nonane-8-carboxamide]	–	< 0.1	–
CC(C)S(=O)(=O)c1ccc(-c2ccc(C(=O)NCC(=O)N3CC4(C[C@H]3C(=O)NCc3cc(C(=N)N)cs3)OCCO4)cc2)cc1 [Compound 216, (S)—N-((4-carbamimidoylthiophen-2-yl)methyl)-7-((4′-(isopropylsulfonyl)-[1,1′-biphenyl]-4-carbonyl)glycyl)-1,4-dioxa-7-azaspiro[4.4]nonane-8-carboxamide]	–	< 0.1	–
C[C@H](NC(=O)c1ccc(-c2ccc(F)cc2)cc1)C(=O)N1CC2(C[C@H]1C(=O)NCc1cc(C(=N)N)cs1)OCCO2 [Compound 296, (S)—N-((4-carbamimidoylthiophen-2-yl)methyl)-7-((4′-fluoro-[1,1′-biphenyl]-4-carbonyl)-L-alanyl)-1,4-dioxa-7-azaspiro[4.4]nonane-8-carboxamide]	–	< 0.1	–
N=C(N)c1csc(CNC(=O)[C@@H]2CC3(CN2C(=O)CNC(=O)c2ccc(-c4ccc(C(F)(F)F)cc4)cc2)OCCO3)c1 [Compound 116, (S)—N-((4-carbamimidoylthiophen-2-yl)methyl)-7-((4′-(trifluoromethyl)-[1,1′-biphenyl]-4-carbonyl)glycyl)-1,4-dioxa-7-azaspiro[4.4]nonane-8-carboxamide]	< 0.1	–	–
C[C@@H](NC(=O)[C@@H]1CC2(CN1C(=O)CNC(=O)c1ccc3c(c1)oc1ccccc13)OCCO2)c1cc(C(=N)N)cs1 [Compound 279, (S)—N—((R)-1-(4-carbamimidoylthiophen-2-yl)ethyl)-7-((dibenzo[b,d]furan-3-carbonyl)glycyl)-1,4-dioxa-7-azaspiro[4.4]nonane-8-carboxamide]	–	< 0.1	–
Cn1ccc2cc(-c3ccc(C(=O)NCC(=O)N4CC5(C[C@H]4C(=O)NCc4cc(C(=N)N)cs4)OCCO5)cc3)ccc21 [Compound 104, (S)—N-((4-carbamimidoylthiophen-2-yl)methyl)-7-((4-(1-methyl-1H-indol-5-yl)benzoyl)glycyl)-1,4-dioxa-7-azaspiro[4.4]nonane-8-carboxamide]	< 0.1	–	–
C[C@@H](NC(=O)[C@@H]1C[C@]2(Cc3ncno3)C[C@@H]2N1C(=O)CNC(=O)c1ccc2c(c1)-c1ccccc1C2(F)F)c1cc(C(=N)N)cs1 [Compound 420, (1S,3S,5S)-5-((1,2,4-oxadiazol-5-yl)methyl)-N—((R)-1-(4-carbamimidoylthiophen-2-yl)ethyl)-2-((9,9-difluoro-9H-fluorene-3-carbonyl)glycyl)-2-azabicyclo[3.1.0]hexane-3-carboxamide]	–	–	IC50 (Human complement C1s enzyme 1.16 nM, substrate Z-L-Lys-SBzl, assay of Example 3): < 0.1 µM
CCS(=O)(=O)[C@@H]1C[C@@H](C(=O)N[C@H](C)c2cc(C(=N)N)cs2)N(C(=O)CNC(=O)c2ccc3c(c2)-c2ccccc2C3(F)F)C1 [Compound 238, (2S,4R)—N—((R)-1-(4-carbamimidoylthiophen-2-yl)ethyl)-1-((9,9-difluoro-9H-fluorene-3-carbonyl)glycyl)-4-(ethylsulfonyl)pyrrolidine-2-carboxamide]	–	< 0.1	–
N=C(N)c1csc(CNC(=O)[C@@H]2CC3(CN2C(=O)CNC(=O)c2ccc4c(c2)-c2ccccc2C4(F)F)OCCO3)c1 [Compound 55, (S)—N-((4-carbamimidoylthiophen-2-yl)methyl)-7-((9,9-difluoro-9H-fluorene-3-carbonyl)glycyl)-1,4-dioxa-7-azaspiro[4.4]nonane-8-carboxamide]	< 0.1	–	–
